The values below come from patent US11220502B2, “Sulfone compounds and derivatives for the treatment and prophylaxis of virus infection” (Hoffmann-La Roche Inc., priority 2018, dated 2022).

SMILES strings stand for the structures. Read-outs that look alike come from different tables or passages of the source.

In the test the target is T1, human TLR7 (Homo sapiens, UniProt Q9NYK1).
T1 sequence (Q9NYK1 27-1049): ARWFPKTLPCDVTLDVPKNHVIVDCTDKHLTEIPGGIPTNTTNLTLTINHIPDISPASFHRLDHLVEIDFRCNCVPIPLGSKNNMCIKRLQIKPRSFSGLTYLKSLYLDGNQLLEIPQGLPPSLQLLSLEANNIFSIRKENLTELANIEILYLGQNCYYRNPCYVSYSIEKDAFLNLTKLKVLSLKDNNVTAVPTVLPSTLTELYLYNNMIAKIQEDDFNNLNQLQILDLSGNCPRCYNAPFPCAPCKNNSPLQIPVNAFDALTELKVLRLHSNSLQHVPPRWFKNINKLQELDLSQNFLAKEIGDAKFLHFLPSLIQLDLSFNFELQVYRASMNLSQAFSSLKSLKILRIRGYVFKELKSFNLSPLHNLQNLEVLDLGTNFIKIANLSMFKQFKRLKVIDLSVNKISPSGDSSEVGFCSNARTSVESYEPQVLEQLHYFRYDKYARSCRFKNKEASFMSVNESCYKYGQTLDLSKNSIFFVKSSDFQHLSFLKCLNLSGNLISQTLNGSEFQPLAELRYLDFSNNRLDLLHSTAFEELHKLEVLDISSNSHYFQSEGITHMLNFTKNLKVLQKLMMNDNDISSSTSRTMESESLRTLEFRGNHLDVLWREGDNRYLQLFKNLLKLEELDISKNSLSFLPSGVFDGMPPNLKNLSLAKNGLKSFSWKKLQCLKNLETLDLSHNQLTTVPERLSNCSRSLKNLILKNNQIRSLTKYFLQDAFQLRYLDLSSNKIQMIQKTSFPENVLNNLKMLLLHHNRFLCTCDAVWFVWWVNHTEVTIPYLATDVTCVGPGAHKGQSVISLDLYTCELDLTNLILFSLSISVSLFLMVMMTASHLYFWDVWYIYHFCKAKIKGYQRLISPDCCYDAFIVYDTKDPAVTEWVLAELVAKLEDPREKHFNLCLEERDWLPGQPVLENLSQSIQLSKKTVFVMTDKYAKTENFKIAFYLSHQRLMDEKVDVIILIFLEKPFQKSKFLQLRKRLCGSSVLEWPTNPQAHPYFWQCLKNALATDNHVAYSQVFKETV
The experiment in a line: HEK293-Blue-hTLR-7 cells assay (SEAP reporter, NF-κB activation). Type of test: cell-based. Particulars: for EC50: HEK293-Blue-hTLR-7 cells, 20 hrs incubation, SEAP reporter; for Ratio (EC50(prodrug)/EC50(active form)): calculated ratio of prodrug EC50 to EC50 of corresponding active form. The source says: HEK293-Blue-hTLR-7 Cells Assay
A stable HEK293-Blue-hTLR-7 cell line was purchased from InvivoGen (Cat. #: hkb-ht1r7, San Diego, Calif., USA). These cells were designed for studying the stimulation of human TLR7 by monitoring the activation of NF-κB. A SEAP (secreted embryonic alkaline phosphatase) reporter gene was placed under the control of the IFN-β minimal promoter fused to five NF-κB and AP-1-binding sites. The SEAP was induced by activating NF-κB and AP-1 via stimulating HEK-Blue hTLR7 cells with TLR7 ligands. Therefore the reporter expression was regulated by the NF-κB promoter upon stimulation of human TLR7 for 20 hrs. The cell culture supernatant SEAP reporter activity was determined using QUANTI-Blue™ kit (Cat. #: rep-qb1, Invivogen, San Diego, Calif., USA) at a wavelength of 640 nm, a detection medium that turns purple or blue in the presence of alkaline phosphatase.
HEK293-Blue-hTLR7 cells were incubated at a density of 250,000˜450,000 cells/mL in a volume of 180 μL in a 96-well plate in Dulbecco's Modified Eagle's medium (DMEM) containing 4.5 g/L glucose, 50 U/mL penicillin, […], […], 2 mM L-glutamine, 10% (V/V) heat-inactivated fetal bovine serum for 24 hrs. Then the HEK293-Blue-hTLR-7 cells were incubated with addition of 20 μL test compound in a serial dilution in the presence of final DMSO at 1% and perform incubation under 37° C. in a CO2 incubator for 20 hrs. Then 20 μL of the supernatant from each well was incubated with 180 μL Quanti-blue substrate solution at 37° C. for 2 hrs and the absorbance was read at 620˜655 nm using a spectrophotometer. The signalling pathway that TLR7 activation leads to downstream NF-κB activation has been widely accepted, and therefore similar reporter assay was also widely used for evaluating TLR7 agonist (Tsuneyasu Kaisho and Takashi Tanaka, Trends in Immunology, Volume 29, Issue 7, July 2008, […]; Hiroaki Hemmi et al, Nature Immunology 3, 196-200 (2002)).
The Compounds and Examples of the present invention were tested in HEK293-hTLR-7 assay for their TLR7 agonism activity as described herein and results are listed in Table 1. […] The calculated ratio of EC50(prodrug)/EC50(active form) were within the range from 27.7 to about 8233.

[1] abbreviates: prodrug, read-out: HEK293-hTLR-7 EC50 (Prodrug).
The mark [2] stands for this setting: corresponding active form, read-out: HEK293-hTLR-7 EC50 (Active form).

Regarding `CCS(=O)(=O)c1nc(N)c2c(n1)n(Cc1ccc(C)cc1)c(=O)n2C(=O)N1CCCC1` [Example 17, 6-Amino-2-ethylsulfonyl-9-(p-tolylmethyl)-7-(pyrrolidine-1-carbonyl)purin-8-one], the “Ratio (EC50(prodrug)/EC50(active form))” value is 1030.8. Also, the EC50 (commonly the concentration giving half of the maximal effect) under setting [1] stood at 67 µM.

As to `CCCS(=O)(=O)c1nc(N)c2c(n1)n(Cc1ccc(C)cc1)c(=O)n2C(=O)N(C)CC` [Example 13, 6-Amino-N-ethyl-N-methyl-8-oxo-2-propylsulfonyl-9-(p-tolylmethyl)purine-7-carboxamide], the “Ratio (EC50(prodrug)/EC50(active form))” value is recorded as 147.7. For the same compound, the EC50 under setting [1] turned out to be 9.6 µM.

As for `CCCS(=O)(=O)c1nc(N)c2[nH]c(=O)n(Cc3ccccc3)c2n1` [Compound 1a, 6-amino-9-benzyl-2-propylsulfonyl-7H-purin-8-one], under setting [2], the concentration for a half-maximal effect (EC50) came to 0.075 µM.

For `CCS(=O)(=O)c1nc(N)c2[nH]c(=O)n(Cc3ccc(F)cc3)c2n1` [Compound 20a, 6-Amino-2-ethylsulfonyl-9-[(4-fluorophenyl)methyl]-7H-purin-8-one], the EC50 under setting [2] came out at 0.008 µM.

As for `CCCN(C)C(=O)n1c(=O)n(Cc2ccccc2)c2nc(S(=O)(=O)CC)nc(N)c21` [Example 4, 6-Amino-9-benzyl-2-ethylsulfonyl-N-methyl-8-oxo-N-propyl-purine-7-carboxamide], the “Ratio (EC50(prodrug)/EC50(active form))” value was 514.7. In addition, under setting [1], the EC50 came out at 87.5 µM.

For the compound `CCS(=O)(=O)c1nc(N)c2c(n1)n(Cc1ccccc1)c(=O)n2C(=O)N1CCCC1` [Example 5, 6-Amino-9-benzyl-2-ethylsulfonyl-7-(pyrrolidine-1-carbonyl)purin-8-one], the “Ratio (EC50(prodrug)/EC50(active form))” value is 174.7. In addition, the concentration for a half-maximal effect (EC50) under setting [1] was determined as 29.7 µM.

For the compound `CCCN(C)C(=O)n1c(=O)n(Cc2ccc(OC)cc2)c2nc(S(=O)(=O)CCC)nc(N)c21` [Example 20, 6-Amino-9-[(4-methoxyphenyl)methyl]-N-methyl-8-oxo-N-propyl-2-propylsulfonyl-purine-7-carboxamide], the “Ratio (EC50(prodrug)/EC50(active form))” value was 4012.5. Also, under setting [1], the EC50 came to 32.1 µM.

Regarding `CCCS(=O)(=O)c1nc(N)c2[nH]c(=O)n(Cc3ccc(Cl)cc3)c2n1` [Compound 6a, 6-amino-9-[(4-chlorophenyl)methyl]-2-propylsulfonyl-7H-purin-8-one], the EC50 under setting [2] worked out at 0.021 µM.

On to `CCS(=O)(=O)c1nc(N)c2[nH]c(=O)n(Cc3ccccc3)c2n1` [Compound 3a, 6-amino-9-benzyl-2-ethylsulfonyl-7H-purin-8-one], for which the EC50 under setting [2] was found to be 0.17 µM.

Regarding `CCCN(C)C(=O)n1c(=O)n(Cc2ccc(Cl)cc2)c2nc(S(=O)(=O)CCC)nc(N)c21` [Example 6, 6-Amino-9-[(4-chlorophenyl)methyl]-N-methyl-8-oxo-N-propyl-2-propylsulfonyl-purine-7-carboxamide], the “Ratio (EC50(prodrug)/EC50(active form))” value is listed as 123.8. In addition, under setting [1], the EC50 is 2.6 µM.

As for `CCS(=O)(=O)c1nc(N)c2c(n1)n(Cc1ccc(Cl)cc1)c(=O)n2C(=O)N(C)CCOC` [Example 11, 6-Amino-9-[(4-chlorophenyl)methyl]-2-ethylsulfonyl-N-(2-methoxyethyl)-N-methyl-8-oxo-purine-7-carboxamide], the “Ratio (EC50(prodrug)/EC50(active form))” value is recorded as 121.7. In addition, the EC50 under setting [1] was found to be 10.1 µM.

For `CCCN(C)C(=O)n1c(=O)n(Cc2ccc(F)cc2)c2nc(S(=O)(=O)CC)nc(N)c21` [Example 18, 6-Amino-2-ethylsulfonyl-9-[(4-fluorophenyl)methyl]-N-methyl-8-oxo-N-propyl-purine-7-carboxamide], the “Ratio (EC50(prodrug)/EC50(active form))” value is given as 40. Also, the EC50 under setting [1] amounted to 2.4 µM.

For `CCCS(=O)(=O)c1nc(N)c2c(n1)n(Cc1ccc(Cl)cc1)c(=O)n2C(=O)N(C)CC` [Example 7, 6-Amino-9-[(4-chlorophenyl)methyl]-N-ethyl-N-methyl-8-oxo-2-propylsulfonyl-purine-7-carboxamide], the “Ratio (EC50(prodrug)/EC50(active form))” value is 152.4. Also, under setting [1], the EC50 amounted to 3.2 µM.

On to `CCCN(C)C(=O)n1c(=O)n(Cc2ccccc2)c2nc(S(=O)(=O)CCC)nc(N)c21` [Example 2, 6-Amino-9-benzyl-N-methyl-8-oxo-N-propyl-2-propylsulfonyl-purine-7-carboxamide], for which the “Ratio (EC50(prodrug)/EC50(active form))” value is recorded as 86.7. In addition, the EC50 under setting [1] came out at 6.5 µM.

For the compound `CCCN(C)C(=O)n1c(=O)n(Cc2ccc(C)cc2)c2nc(S(=O)(=O)CC)nc(N)c21` [Example 14, 6-Amino-2-ethylsulfonyl-N-methyl-8-oxo-N-propyl-9-(p-tolylmethyl)purine-7-carboxamide], the “Ratio (EC50(prodrug)/EC50(active form))” value is given as 1053. In addition, the EC50 under setting [1] is 68.5 µM.

Turning to `CCCS(=O)(=O)c1nc(N)c2c(n1)n(Cc1ccccc1)c(=O)n2C(=O)N(C)CC` [Example 1, 6-Amino-9-benzyl-N-ethyl-N-methyl-8-oxo-2-propylsulfonyl-purine-7-carboxamide], the “Ratio (EC50(prodrug)/EC50(active form))” value is 145.3. Also, the concentration for a half-maximal effect (EC50) under setting [1] was determined as 10.9 µM.

With `CCN(C)C(=O)n1c(=O)n(Cc2ccc(Br)cc2)c2nc(S(=O)(=O)CC)nc(N)c21` [Example 23, 6-Amino-9-[(4-bromophenyl)methyl]-N-ethyl-2-ethylsulfonyl-N-methyl-8-oxo-purine-7-carboxamide], the “Ratio (EC50(prodrug)/EC50(active form))” value is recorded as more than 4348. Also, under setting [1], the EC50 is more than 100 µM.

Regarding `CCN(C)C(=O)n1c(=O)n(Cc2ccc(F)cc2)c2nc(S(=O)(=O)CC)nc(N)c21` [Example 19, 6-Amino-N-ethyl-2-ethylsulfonyl-9-[(4-fluorophenyl)methyl]-N-methyl-8-oxo-purine-7-carboxamide], the “Ratio (EC50(prodrug)/EC50(active form))” value is reported as 8233. Moreover, the EC50 under setting [1] is 494 µM.

In the case of `CCCN(C)C(=O)n1c(=O)n(Cc2ccc(C)cc2)c2nc(S(=O)(=O)CCC)nc(N)c21` [Example 12, 6-Amino-N-methyl-8-oxo-N-propyl-2-propylsulfonyl-9-(p-tolylmethyl)purine-7-carboxamide], the “Ratio (EC50(prodrug)/EC50(active form))” value was 50.8. Under setting [1], the 50% effective concentration (EC50) was 3.3 µM.

As for `CCCS(=O)(=O)c1nc(N)c2c(n1)n(Cc1ccc(OC)cc1)c(=O)n2C(=O)N(C)CC` [Example 21, 6-Amino-N-ethyl-9-[-(4-methoxyphenyl)methyl]-N-methyl-8-oxo-2-propylsulfonyl-purine-7-carboxamide], the “Ratio (EC50(prodrug)/EC50(active form))” value is listed as 3025. Moreover, the half-maximal effective concentration (EC50) under setting [1] came to 24.2 µM.

For `CCS(=O)(=O)c1nc(N)c2[nH]c(=O)n(Cc3ccc(Br)cc3)c2n1` [Compound 22a, 6-Amino-2-ethylsulfonyl-9-[(4-bromophenyl)methyl]-7H-purin-8-one], under setting [2], the half-maximal effective concentration (EC50) stood at 0.023 µM.

As to `CCN(C)C(=O)n1c(=O)n(Cc2ccc(Cl)cc2)c2nc(S(=O)(=O)CC)nc(N)c21` [Example 9, 6-Amino-9-[(4-chlorophenyl)methyl]-N-ethyl-2-ethylsulfonyl-N-methyl-8-oxo-purine-7-carboxamide], the “Ratio (EC50(prodrug)/EC50(active form))” value is listed as 219.3. Further, the concentration giving a half-maximal response (EC50) under setting [1] came to 18.2 µM.
